Results taken from patent US20160095843A1, “PYRAZOLOPYRROLIDINE DERIVATIVES AND THEIR USE IN THE TREATMENT OF DISEASE” (NOVARTIS AG, priority 2013, published 2016).

Experiments:
MV-4-11 cells = assay: Cell growth inhibition assay (CellTiter-Glo), MV-4-11; format: cell-based; conditions: Homo sapiens, MV4-11
Method in brief: (§1)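 Leukemia lines grown in their own media were exposed for 4 days at 37° C. to 3-fold serial dilutions from 10 μM (0.1% DMSO). Viability by CellTiter-Glo ATP luminescence, corrected for background and day-0 plate; IC50 and TGI from four-parameter fit against vehicle (100%) and medium (−100%).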

THP-1 cells = assay: Cell growth inhibition assay (CellTiter-Glo), THP-1; format: cell-based; conditions: Homo sapiens
Method in brief: as §1

K-562 cells = assay: Cell growth inhibition assay (CellTiter-Glo), K-562; format: cell-based, human; conditions: for GI50: Homo sapiens, K562
Method in brief: as §1

Compound | GI50 (MV-4-11 cells) | GI50 (THP-1 cells) | GI50 (K-562 cells) | IC (TGI) (K-562 cells)
CCc1nn(C)c2c1C(c1ccc(Cl)cc1)N(c1cc(OC)c3nnc(C)n3c1)C2=O (centres unmarked) [Example 105, 4-(4-chlorophenyl)-3-ethyl-5-(8-methoxy-3-methyl-[1,2,4]triazolo[4,3-a]pyridin-6-yl)-1-methyl-4,5-dihydropyrrolo-[3,4-c]pyrazol-6(1H)-one] | 102 nM | 188 nM | 729 nM | –
CCc1nn(C2CC2)c2c1[C@H](c1ccc(Cl)cc1)N(c1cc(C)c3nnc(C)n3c1)C2=O [Example 106, (S)-4-(4-chlorophenyl)-1-cyclopropyl-5-(3,8-dimethyl-[1,2,4]triazolo[4,3-a]pyridin-6-yl)-3-ethyl-4,5-dihydropyrrolo-[3,4-c]pyrazol-6(1H)-one] | 649 nM | 2110 nM | 4060 nM | >10000 nM
CCc1nn(C2CC2)c2c1[C@@H](c1ccc(Cl)cc1)N(c1cc(C)c3nnc(C)n3c1)C2=O [Example 107, (R)-4-(4-chlorophenyl)-1-cyclopropyl-5-(3,8-dimethyl-[1,2,4]triazolo[4,3-a]pyridin-6-yl)-3-ethyl-4,5-dihydropyrrolo-[3,4-c]pyrazol-6(1H)-one] | 7.28 nM | 8.18 nM | 37.9 nM | >10000 nM
CCc1nn(CCOCC(F)(F)F)c2c1C(c1ccc(Cl)cc1)N(c1cc(OC)c3nnc(C)n3c1)C2=O (centres unmarked) [Example 108, 4-(4-chlorophenyl)-3-ethyl-5-(8-methoxy-3-methyl-[1,2,4]triazolo[4,3-a]pyridin-6-yl)-1-(2-(2,2,2-trifluoroethoxy)ethyl)-4,5-dihydropyrrolo[3,4-c]pyrazol-6(1H)-one] | 267 nM | 397 nM | 1510 nM | –
COc1ncccc1-n1nc(C)c2c1C(=O)N(c1cc(C)c3nnn(C)c3n1)C2c1ccc(Cl)cc1 (centres unmarked) [Example 109, 4-(4-chlorophenyl)-5-(3,7-dimethyl-3H-[1,2,3]triazolo[4,5-b]pyridin-5-yl)-1-(2-methoxypyridin-3-yl)-3-methyl-4,5-dihydropyrrolo-[3,4-c]pyrazol-6(1H)-one] | 18.6 nM | 39.8 nM | 269 nM | –
Cc1nn(C2CC2)c2c1C(c1ccc(Cl)cc1)N(c1cc(C)c3nnn(C)c3n1)C2=O (centres unmarked) [Example 110, 4-(4-chlorophenyl)-1-cyclopropyl-5-(3,7-dimethyl-3H-[1,2,3]triazolo[4,5-b]pyridin-5-yl)-3-methyl-4,5-dihydropyrrolo-[3,4-c]pyrazol-6(1H)-one] | 5.25 nM | 10.6 nM | 50.3 nM | –
COc1ncccc1-n1nc(C)c2c1C(=O)N(c1cc(C)c3nnc(C)n3n1)C2c1ccc(Cl)cc1 (centres unmarked) [Example 111, 4-(4-chlorophenyl)-5-(3,8-dimethyl-[1,2,4]triazolo[4,3-b]pyridazin-6-yl)-1-(2-methoxypyridin-3-yl)-3-methyl-4,5-dihydropyrrolo-[3,4-c]pyrazol-6(1H)-one] | 16.2 nM | 22 nM | 177 nM | –
Cc1nn(C2CC2)c2c1C(c1ccc(Cl)cc1)N(c1cc(N(C)C(=O)OC(C)(C)C)c3nnc(C)n3n1)C2=O (centres unmarked) [Example 112, tert-butyl (6-(4-(4-chlorophenyl)-1-cyclopropyl-3-methyl-6-oxopyrrolo[3,4-c]pyrazol-5(1H,4H,6H)-yl)-3-methyl-[1,2,4]triazolo[4,3-b]pyridazin-8-yl)(methyl)carbamate] | 758 nM | 1280 nM | 2810 nM | –
Cc1nn(-c2ccnn2C)c2c1C(c1ccc(Cl)cc1)N(c1cc(C)c3nnc(C)n3n1)C2=O (centres unmarked) [Example 114, 4-(4-chlorophenyl)-5-(3,8-dimethyl-[1,2,4]triazolo[4,3-b]pyridazin-6-yl)-3-methyl-1-(1-methyl-1H-pyrazol-5-yl)-4,5-dihydropyrrolo-[3,4-c]pyrazol-6(1H)-one] | 20.4 nM | 30.4 nM | 187 nM | –
